Results: PubChem BioAssay AID1259407 (Chemical Carcinogenesis Research Information System (CCRIS), 2018)
The source made the active and inactive calls. How the calls were made is not given here.

Tested on: CCRIS mutagenicity, Ames/micronucleus/aberration tests
Assay: CCRIS mutagenicity studies

Measured: mutagenic call

O=C=NCCCCCCN=C=O
inactive: Test System: AMES SALMONELLA TYPHIMURIUM, Strain/Indicator: TA98, Metabolic Activation: NONE, Method: DESICCATOR inactive; negative | Test System: AMES SALMONELLA TYPHIMURIUM, Strain/Indicator: TA98, Metabolic Activation: NONE, Method: PREINCUBATION inactive; negative | Test System: AMES SALMONELLA TYPHIMURIUM, Strain/Indicator: TA98, Metabolic Activation: RAT LIVER S-9, AROCLOR 1254 (10%), Method: DESICCATOR inactive; negative | Test System: AMES SALMONELLA TYPHIMURIUM, Strain/Indicator: TA98, Metabolic Activation: RAT, LIVER, S-9, SODIUM PHENOBARBITAL AND 5,6-BENZOFLAVONE, Method: PREINCUBATION inactive; negative | Test System: AMES SALMONELLA TYPHIMURIUM, Strain/Indicator: TA100, Metabolic Activation: NONE, Method: DESICCATOR inactive; negative | Test System: AMES SALMONELLA TYPHIMURIUM, Strain/Indicator: TA100, Metabolic Activation: NONE, Method: PREINCUBATION inactive; negative | Test System: AMES SALMONELLA TYPHIMURIUM, Strain/Indicator: TA100, Metabolic Activation: RAT LIVER S-9, AROCLOR 1254 (10%), Method: DESICCATOR inactive; negative | Test System: AMES SALMONELLA TYPHIMURIUM, Strain/Indicator: TA100, Metabolic Activation: RAT, LIVER, S-9, SODIUM PHENOBARBITAL AND 5,6-BENZOFLAVONE, Method: PREINCUBATION inactive; negative | Test System: AMES SALMONELLA TYPHIMURIUM, Strain/Indicator: TA102, Metabolic Activation: NONE, Method: PREINCUBATION inactive; negative | Test System: AMES SALMONELLA TYPHIMURIUM, Strain/Indicator: TA102, Metabolic Activation: RAT, LIVER, S-9, SODIUM PHENOBARBITAL AND 5,6-BENZOFLAVONE, Method: PREINCUBATION inactive; negative | Test System: AMES SALMONELLA TYPHIMURIUM, Strain/Indicator: TA104, Metabolic Activation: NONE, Method: PREINCUBATION inactive; negative | Test System: AMES SALMONELLA TYPHIMURIUM, Strain/Indicator: TA104, Metabolic Activation: RAT, LIVER, S-9, SODIUM PHENOBARBITAL AND 5,6-BENZOFLAVONE, Method: PREINCUBATION inactive; negative | Test System: AMES SALMONELLA TYPHIMURIUM, Strain/Indicator: TA1535, Metabolic Activation: NONE, Method: DESICCATOR inactive; negative | Test System: AMES SALMONELLA TYPHIMURIUM, Strain/Indicator: TA1535, Metabolic Activation: NONE, Method: PREINCUBATION inactive; negative | Test System: AMES SALMONELLA TYPHIMURIUM, Strain/Indicator: TA1535, Metabolic Activation: RAT LIVER S-9, AROCLOR 1254 (10%), Method: DESICCATOR inactive; negative | Test System: AMES SALMONELLA TYPHIMURIUM, Strain/Indicator: TA1535, Metabolic Activation: RAT, LIVER, S-9, SODIUM PHENOBARBITAL AND 5,6-BENZOFLAVONE, Method: PREINCUBATION inactive; negative | Test System: AMES SALMONELLA TYPHIMURIUM, Strain/Indicator: TA1537, Metabolic Activation: NONE, Method: DESICCATOR inactive; negative | Test System: AMES SALMONELLA TYPHIMURIUM, Strain/Indicator: TA1537, Metabolic Activation: NONE, Method: PREINCUBATION inactive; negative | Test System: AMES SALMONELLA TYPHIMURIUM, Strain/Indicator: TA1537, Metabolic Activation: RAT LIVER S-9, AROCLOR 1254 (10%), Method: DESICCATOR inactive; negative | Test System: AMES SALMONELLA TYPHIMURIUM, Strain/Indicator: TA1537, Metabolic Activation: RAT, LIVER, S-9, SODIUM PHENOBARBITAL AND 5,6-BENZOFLAVONE, Method: PREINCUBATION inactive; negative | Test System: CHINESE HAMSTER OVARY CELLS, Strain/Indicator: CHO/HGPRT/6-THIOGUANINE, Metabolic Activation: NONE, Method: DESICCATOR inactive; negative | Test System: CHINESE HAMSTER OVARY CELLS, Strain/Indicator: CHO/HGPRT/6-THIOGUANINE, Metabolic Activation: RAT LIVER S-9, AROCLOR 1254 (10%), Method: DESICCATOR inactive; negative | Test System: E. COLI, Strain/Indicator: WP2UVRA/PKM101, Metabolic Activation: NONE, Method: PREINCUBATION inactive; negative | Test System: E. COLI, Strain/Indicator: WP2UVRA/PKM101, Metabolic Activation: RAT, LIVER, S-9, SODIUM PHENOBARBITAL AND 5,6-BENZOFLAVONE, Method: PREINCUBATION inactive; negative | Test System: E. COLI, Strain/Indicator: WP2UVRA, Metabolic Activation: NONE, Method: PREINCUBATION inactive; negative | Test System: E. COLI, Strain/Indicator: WP2UVRA, Metabolic Activation: RAT, LIVER, S-9, SODIUM PHENOBARBITAL AND 5,6-BENZOFLAVONE, Method: PREINCUBATION inactive; negative
